In patent publication US10662229B2, “Spider venom peptides and methods of use for modulating sodium channels” (priority 2016, dated 2020):
Where a SMILES comes first, the peptide text is derived from it. Bridges are numbered along the chain shown (N, C = ends). [ ]: non-standard residue; d: D form. Nle = CCCC[C@H](N)C(=O)O

Legend:
Type in all cases: cell-based
hNav1.1 = biological target: T1, hNav1.1 (Homo sapiens, UniProt P35498); experiment: FLIPR membrane potential assay, hNav1.1; conditions: for Selectivity for Nav1.7, Nav subtype 1.1: membrane potential assay
T1 construct: host or cells: HEK293
Experimental: (§1) HEK293 cells stably expressing hNav1.1, hNav1.2, hNav1.3, hNav1.4, hNav1.5, hNav1.6, hNav1.7 and […] (SB Drug Discovery, Glasgow, UK) were cultured in minimum essential media (MEM) containing 10% v/v FBS supplemented with L-glutamine (2 mM) and selection antibiotics G-418 (0.5 mg/mL), blasticidin (2-4 μg/mL) and zeocin (0.5 mg/mL) as recommended by the manufacturer. CHO cells stably expressing hNav1.8 in a tetracycline-inducible system (Chantest, OH, USA) were cultured in Ham's F-12 containing 10% v/v FBS and selection antibiotics as recommended by the manufacturer. To induce hNav1.8 expression, cells were cultured in the presence of tetracycline (1 μg/mL) for 24 h at 27° C. Cells were grown in a humidified 5% CO2 incubator at 37° C., grown to 70-80% confluence, and passaged every 3-4 days using TrypLE Express (Invitrogen).
(§2) Cells were plated 48 h before the assay on 384-well black walled imaging plates at a density of 10,000 to 15,000 cells per well and were loaded with red membrane potential dye for 30 min at 37° C. (Molecular Devices, CA, USA). One vial of bulk red membrane potential dye was reconstituted to a 10× stock solution with PSS and stored at −20° C. and diluted to 1× solution with PSS on the day of the assay. […] Changes in membrane potential were assessed using the FLIPR^TETRA (excitation 515 to 545 nm, emission 565 to 625 nm) every second for 300 s after adding agonists.

hNav1.2 = biological target: T2, hNav1.2 (Homo sapiens, UniProt Q99250); experiment: FLIPR membrane potential assay, hNav1.2; conditions: for Selectivity for Nav1.7, Nav subtype 1.2: membrane potential assay
T2 construct: host or cells: HEK293
Experimental: as §1, §2

hNav1.3 = biological target: T3, hNav1.3 (Homo sapiens, UniProt Q9NY46); experiment: FLIPR membrane potential assay, hNav1.3; conditions: for Selectivity for Nav1.7, Nav subtype 1.3: membrane potential assay
T3 construct: host or cells: HEK293
Experimental: as §1, §2

hNav1.4 = biological target: T4, hNav1.4 (Homo sapiens, UniProt P35499); experiment: FLIPR membrane potential assay, hNav1.4; conditions: for Selectivity for Nav1.7, Nav subtype 1.4: membrane potential assay
T4 construct: host or cells: HEK293
Experimental: as §1, §2

hNav1.5 = biological target: T5, hNav1.5 (Homo sapiens, UniProt Q14524); experiment: FLIPR membrane potential assay, hNav1.5; conditions: for Selectivity for Nav1.7, Nav subtype 1.5: membrane potential assay
T5 construct: host or cells: HEK293
Experimental: as §1, §2

hNav1.6 = biological target: T6, hNav1.6 (Homo sapiens, UniProt Q9UQD0); experiment: FLIPR membrane potential assay, hNav1.6; conditions: for Selectivity for Nav1.7, Nav subtype 1.6: membrane potential assay
T6 construct: host or cells: HEK293
Experimental: as §1, §2

hNav1.7 = biological target: T7, hNav1.7 (Homo sapiens, UniProt Q15858); experiment: FLIPR membrane potential assay, hNav1.7; conditions: for Selectivity for Nav1.7, Nav subtype 1.7: membrane potential assay, reference subtype
T7 construct: host or cells: HEK293
Experimental: as §1, §2

hNav1.8 = biological target: T8, hNav1.8 (Homo sapiens, UniProt Q9Y5Y9); experiment: FLIPR membrane potential assay, hNav1.8; conditions: for Selectivity for Nav1.7, Nav subtype 1.8: membrane potential assay
T8 construct: host or cells: HEK293
Experimental: as §1, §2

T6 sequence (Q9UQD0 whole entry): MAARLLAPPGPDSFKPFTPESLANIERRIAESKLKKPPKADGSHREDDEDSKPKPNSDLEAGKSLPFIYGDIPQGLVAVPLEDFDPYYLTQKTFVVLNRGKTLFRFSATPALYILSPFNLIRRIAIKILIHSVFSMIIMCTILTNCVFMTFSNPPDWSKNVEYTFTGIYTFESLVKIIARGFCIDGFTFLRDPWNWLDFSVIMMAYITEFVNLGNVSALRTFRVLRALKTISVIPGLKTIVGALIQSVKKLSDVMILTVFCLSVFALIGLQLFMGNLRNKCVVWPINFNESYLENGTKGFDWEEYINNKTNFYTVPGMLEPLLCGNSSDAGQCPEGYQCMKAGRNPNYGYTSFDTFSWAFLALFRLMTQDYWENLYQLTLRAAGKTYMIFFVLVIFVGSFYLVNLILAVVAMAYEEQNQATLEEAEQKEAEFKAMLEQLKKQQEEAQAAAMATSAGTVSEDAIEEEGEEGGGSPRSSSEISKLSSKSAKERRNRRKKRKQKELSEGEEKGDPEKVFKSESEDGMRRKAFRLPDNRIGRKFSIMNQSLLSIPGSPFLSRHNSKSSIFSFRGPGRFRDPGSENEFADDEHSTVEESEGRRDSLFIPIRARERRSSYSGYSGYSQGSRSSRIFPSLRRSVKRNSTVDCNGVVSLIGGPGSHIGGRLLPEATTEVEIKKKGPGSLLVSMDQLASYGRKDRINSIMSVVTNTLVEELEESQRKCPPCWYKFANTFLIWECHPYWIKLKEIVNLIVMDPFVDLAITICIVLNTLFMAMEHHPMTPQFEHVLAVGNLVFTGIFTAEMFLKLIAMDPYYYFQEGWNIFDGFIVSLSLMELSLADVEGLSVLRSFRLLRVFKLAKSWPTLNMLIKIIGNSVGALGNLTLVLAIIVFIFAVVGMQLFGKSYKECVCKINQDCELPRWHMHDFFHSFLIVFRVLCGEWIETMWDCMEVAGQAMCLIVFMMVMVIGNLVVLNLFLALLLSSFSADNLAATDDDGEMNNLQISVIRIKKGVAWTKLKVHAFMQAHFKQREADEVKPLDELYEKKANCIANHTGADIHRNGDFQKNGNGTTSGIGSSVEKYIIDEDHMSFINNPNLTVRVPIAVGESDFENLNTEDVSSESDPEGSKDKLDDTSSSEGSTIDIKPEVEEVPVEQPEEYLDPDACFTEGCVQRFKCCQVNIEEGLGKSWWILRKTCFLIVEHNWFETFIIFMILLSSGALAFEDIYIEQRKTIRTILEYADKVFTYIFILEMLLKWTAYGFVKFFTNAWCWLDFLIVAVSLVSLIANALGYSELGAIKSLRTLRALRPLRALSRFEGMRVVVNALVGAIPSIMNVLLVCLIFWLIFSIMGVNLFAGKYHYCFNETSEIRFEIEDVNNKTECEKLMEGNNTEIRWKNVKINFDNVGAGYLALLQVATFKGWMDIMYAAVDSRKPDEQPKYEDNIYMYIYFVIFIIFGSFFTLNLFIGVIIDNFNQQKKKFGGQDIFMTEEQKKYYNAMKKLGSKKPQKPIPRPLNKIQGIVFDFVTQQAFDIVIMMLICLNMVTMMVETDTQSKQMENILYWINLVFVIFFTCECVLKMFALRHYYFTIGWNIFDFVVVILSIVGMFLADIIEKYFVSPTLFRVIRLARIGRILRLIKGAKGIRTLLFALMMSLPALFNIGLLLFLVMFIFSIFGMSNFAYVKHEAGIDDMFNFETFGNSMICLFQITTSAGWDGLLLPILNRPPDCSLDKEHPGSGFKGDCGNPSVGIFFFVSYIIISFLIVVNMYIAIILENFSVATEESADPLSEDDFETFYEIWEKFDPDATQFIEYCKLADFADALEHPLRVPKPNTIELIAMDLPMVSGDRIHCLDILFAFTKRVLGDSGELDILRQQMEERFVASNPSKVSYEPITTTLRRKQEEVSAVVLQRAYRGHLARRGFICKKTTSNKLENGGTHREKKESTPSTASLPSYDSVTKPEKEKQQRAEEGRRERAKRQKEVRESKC
T3 sequence (Q9NY46 whole entry): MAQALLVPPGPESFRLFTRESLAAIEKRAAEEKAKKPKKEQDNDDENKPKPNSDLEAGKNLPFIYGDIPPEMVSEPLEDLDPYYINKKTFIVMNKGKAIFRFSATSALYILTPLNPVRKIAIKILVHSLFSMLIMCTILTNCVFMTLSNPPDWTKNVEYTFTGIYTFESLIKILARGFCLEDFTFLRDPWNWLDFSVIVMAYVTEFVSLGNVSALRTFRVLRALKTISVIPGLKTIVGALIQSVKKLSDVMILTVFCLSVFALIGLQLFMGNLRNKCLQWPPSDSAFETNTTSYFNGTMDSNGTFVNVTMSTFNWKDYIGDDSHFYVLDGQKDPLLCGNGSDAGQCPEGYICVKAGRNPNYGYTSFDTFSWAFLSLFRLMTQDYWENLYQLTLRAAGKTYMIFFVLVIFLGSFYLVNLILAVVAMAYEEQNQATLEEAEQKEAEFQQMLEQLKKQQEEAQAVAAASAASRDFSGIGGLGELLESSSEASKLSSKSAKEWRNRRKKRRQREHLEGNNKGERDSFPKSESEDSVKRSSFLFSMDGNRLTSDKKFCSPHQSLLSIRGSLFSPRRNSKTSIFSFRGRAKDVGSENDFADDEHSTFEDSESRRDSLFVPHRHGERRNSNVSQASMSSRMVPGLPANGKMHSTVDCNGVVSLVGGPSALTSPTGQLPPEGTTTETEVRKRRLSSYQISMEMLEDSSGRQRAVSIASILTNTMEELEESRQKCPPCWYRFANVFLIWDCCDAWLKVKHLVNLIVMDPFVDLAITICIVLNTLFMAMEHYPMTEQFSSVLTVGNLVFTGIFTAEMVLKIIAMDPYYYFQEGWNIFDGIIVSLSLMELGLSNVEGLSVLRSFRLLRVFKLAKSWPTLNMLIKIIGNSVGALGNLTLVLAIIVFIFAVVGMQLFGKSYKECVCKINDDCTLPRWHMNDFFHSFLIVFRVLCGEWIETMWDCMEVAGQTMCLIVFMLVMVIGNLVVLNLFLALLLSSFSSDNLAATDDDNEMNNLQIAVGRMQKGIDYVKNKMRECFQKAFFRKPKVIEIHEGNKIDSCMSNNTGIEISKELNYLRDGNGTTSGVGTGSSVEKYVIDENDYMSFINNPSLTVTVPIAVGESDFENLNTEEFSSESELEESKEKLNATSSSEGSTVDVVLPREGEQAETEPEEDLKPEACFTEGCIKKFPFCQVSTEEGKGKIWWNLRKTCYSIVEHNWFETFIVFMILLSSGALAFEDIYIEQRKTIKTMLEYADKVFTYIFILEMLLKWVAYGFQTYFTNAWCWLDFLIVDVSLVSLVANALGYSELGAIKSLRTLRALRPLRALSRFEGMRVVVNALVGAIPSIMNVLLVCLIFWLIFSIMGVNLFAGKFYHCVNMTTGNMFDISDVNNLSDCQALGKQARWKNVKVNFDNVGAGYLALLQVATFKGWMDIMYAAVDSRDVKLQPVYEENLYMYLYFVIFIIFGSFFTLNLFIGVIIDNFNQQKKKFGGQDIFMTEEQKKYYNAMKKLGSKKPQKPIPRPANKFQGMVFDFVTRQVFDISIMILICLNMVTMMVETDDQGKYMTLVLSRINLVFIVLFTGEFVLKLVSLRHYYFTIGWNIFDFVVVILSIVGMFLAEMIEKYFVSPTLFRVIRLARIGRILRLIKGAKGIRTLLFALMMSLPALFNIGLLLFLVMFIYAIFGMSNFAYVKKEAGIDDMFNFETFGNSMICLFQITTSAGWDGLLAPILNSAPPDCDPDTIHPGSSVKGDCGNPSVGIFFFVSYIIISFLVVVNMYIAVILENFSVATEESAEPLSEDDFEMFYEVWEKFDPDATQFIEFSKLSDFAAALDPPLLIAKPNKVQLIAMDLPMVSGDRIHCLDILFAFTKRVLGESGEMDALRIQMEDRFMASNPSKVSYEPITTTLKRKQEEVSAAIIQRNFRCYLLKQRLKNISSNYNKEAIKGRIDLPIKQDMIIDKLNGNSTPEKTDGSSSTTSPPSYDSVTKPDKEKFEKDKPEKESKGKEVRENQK

Structure (SMILES)	IC50 (hNav1.1) [µM]	Selectivity for Nav1.7, Nav subtype 1.1 (hNav1.1)	IC50 (hNav1.2) [µM]	Selectivity for Nav1.7, Nav subtype 1.2 (hNav1.2)	IC50 (hNav1.3) [µM]	Selectivity for Nav1.7, Nav subtype 1.3 (hNav1.3)	IC50 (hNav1.4) [µM]	Selectivity for Nav1.7, Nav subtype 1.4 (hNav1.4)	IC50 (hNav1.5) [µM]	Selectivity for Nav1.7, Nav subtype 1.5 (hNav1.5)	IC50 (hNav1.6) [µM]	Selectivity for Nav1.7, Nav subtype 1.6 (hNav1.6)	IC50 (hNav1.7) [µM]	Selectivity for Nav1.7, Nav subtype 1.7 (hNav1.7)	IC50 (hNav1.8) [µM]	Selectivity for Nav1.7, Nav subtype 1.8 (hNav1.8)
CSCC[C@@H]1NC(=O)[C@H](Cc2ccc(O)cc2)NC(=O)[C@H](CCCNC(=N)N)NC(=O)[C@@H](NC(=O)[C@@H](N)CCCCN)CSSC[C@@H]2NC(=O)[C@@H]3CSSC[C@@H](C(=O)N[C@@H](C)C(=O)N[C@@H](Cc4c[nH]c5ccccc45)C(=O)N[C@@H](CC(=O)O)C(=O)N[C@@H](Cc4ccccc4)C(=O)N[C@H](C(=O)N[C@@H](Cc4ccccc4)C(=O)N[C@H](C(=O)O)[C@@H](C)O)[C@@H](C)O)NC(=O)[C@H](Cc4ccc(O)cc4)NC(=O)[C@H](CCCCN)NC(=O)[C@H](CCSC)NC(=O)[C@H](CCCCN)NC(=O)[C@H](CCCNC(=N)N)NC(=O)[C@H](CCCCN)NC(=O)[C@H](CSSC[C@H](NC(=O)[C@H](CC(=O)O)NC(=O)CNC(=O)[C@H](Cc4ccccc4)NC1=O)C(=O)N[C@@H](CCC(=O)O)C(=O)N[C@@H](CCCCN)C(=O)N[C@@H](CC(=O)O)C(=O)N[C@@H](CCC(=O)O)C(=O)N[C@@H](CC(=O)O)C(=O)N3)NC(=O)CNC(=O)[C@H](CC(C)C)NC(=O)[C@H](Cc1c[nH]cn1)NC(=O)[C@H](CCCCN)NC2=O [[D1K]Pnc1a] (H-KCRYMFGDCEKDEDCCKHLGCKRKMKYCAWDFTFT-OH; disulfide 2-16, 9-21, 15-28)	0.754	24	0.261	8	4	134	3	86	> 30	>900	> 30	>900	0.031	1	> 30	>900
CCCC[C@@H]1NC(=O)[C@H](Cc2ccc(O)cc2)NC(=O)[C@H](CCCNC(=N)N)NC(=O)[C@@H](NC(=O)[C@@H](N)CC(=O)O)CSSC[C@@H]2NC(=O)[C@@H]3CSSC[C@@H](C(=O)N[C@@H](C)C(=O)N[C@@H](Cc4c[nH]c5ccccc45)C(=O)N[C@@H](CC(=O)O)C(=O)N[C@@H](Cc4ccccc4)C(=O)N[C@H](C(=O)N[C@@H](Cc4ccccc4)C(=O)N[C@H](C(=O)O)[C@@H](C)O)[C@@H](C)O)NC(=O)[C@H](Cc4ccc(O)cc4)NC(=O)[C@H](CCCCN)NC(=O)[C@H](CCCC)NC(=O)[C@H](CCCCN)NC(=O)[C@H](CCCNC(=N)N)NC(=O)[C@H](CCCCN)NC(=O)[C@H](CSSC[C@H](NC(=O)[C@H](CC(=O)O)NC(=O)CNC(=O)[C@H](Cc4ccccc4)NC1=O)C(=O)N[C@@H](CCC(=O)O)C(=O)N[C@@H](CCCCN)C(=O)N[C@@H](CC(=O)O)C(=O)N[C@@H](CCC(=O)O)C(=O)N[C@@H](CC(=O)O)C(=O)N3)NC(=O)CNC(=O)[C@H](CC(C)C)NC(=O)[C@H](Cc1c[nH]cn1)NC(=O)[C@H](CCCCN)NC2=O [[M5,25Nle]Pnc1a] (H-DCRY[Nle]FGDCEKDEDCCKHLGCKRK[Nle]KYCAWDFTFT-OH; disulfide 2-16, 9-21, 15-28)	2	17	0.773	7	1	10	3	22	> 30	>260	5	41	0.116	1	> 30	>260
CSCC[C@@H]1NC(=O)[C@H](C)NC(=O)[C@H](CCCNC(=N)N)NC(=O)[C@@H](NC(=O)[C@@H](N)CC(=O)O)CSSC[C@@H]2NC(=O)[C@@H]3CSSC[C@@H](C(=O)N[C@@H](C)C(=O)N[C@@H](Cc4c[nH]c5ccccc45)C(=O)N[C@@H](CC(=O)O)C(=O)N[C@@H](Cc4ccccc4)C(=O)N[C@H](C(=O)N[C@@H](Cc4ccccc4)C(=O)N[C@H](C(=O)O)[C@@H](C)O)[C@@H](C)O)NC(=O)[C@H](Cc4ccc(O)cc4)NC(=O)[C@H](CCCCN)NC(=O)[C@H](CCSC)NC(=O)[C@H](CCCCN)NC(=O)[C@H](CCCNC(=N)N)NC(=O)[C@H](CCCCN)NC(=O)[C@H](CSSC[C@H](NC(=O)[C@H](CC(=O)O)NC(=O)CNC(=O)[C@H](Cc4ccccc4)NC1=O)C(=O)N[C@@H](CCC(=O)O)C(=O)N[C@@H](CCCCN)C(=O)N[C@@H](CC(=O)O)C(=O)N[C@@H](CCC(=O)O)C(=O)N[C@@H](CC(=O)O)C(=O)N3)NC(=O)CNC(=O)[C@H](CC(C)C)NC(=O)[C@H](Cc1c[nH]cn1)NC(=O)[C@H](CCCCN)NC2=O [[Y4A]Pnc1a] (H-DCRAMFGDCEKDEDCCKHLGCKRKMKYCAWDFTFT-OH; disulfide 2-16, 9-21, 15-28)	17	19	8	8	20	22	12	12	18	20	> 30	>30	0.934	1	> 30	>30
CSCC[C@@H]1NC(=O)[C@H](Cc2ccc(O)cc2)NC(=O)[C@H](CCCNC(=N)N)NC(=O)[C@@H](NC(=O)[C@@H](N)CC(=O)O)CSSC[C@@H]2NC(=O)[C@@H]3CSSC[C@@H](C(=O)N[C@@H](C)C(=O)N[C@@H](Cc4c[nH]c5ccccc45)C(=O)N[C@@H](CC(=O)O)C(=O)N[C@@H](Cc4ccccc4)C(=O)N[C@H](C(=O)N[C@@H](Cc4ccccc4)C(=O)N[C@H](C(=O)O)[C@@H](C)O)[C@@H](C)O)NC(=O)[C@H](Cc4ccc(O)cc4)NC(=O)[C@H](CCCCN)NC(=O)[C@H](CCSC)NC(=O)[C@H](CCCCN)NC(=O)[C@H](CCCNC(=N)N)NC(=O)[C@H](CCCCN)NC(=O)[C@H](CSSC[C@H](NC(=O)[C@H](CC(N)=O)NC(=O)CNC(=O)[C@H](Cc4ccccc4)NC1=O)C(=O)N[C@@H](CCC(=O)O)C(=O)N[C@@H](CCCCN)C(=O)N[C@@H](CC(=O)O)C(=O)N[C@@H](CCC(=O)O)C(=O)N[C@@H](CC(=O)O)C(=O)N3)NC(=O)CNC(=O)[C@H](CC(C)C)NC(=O)[C@H](Cc1c[nH]cn1)NC(=O)[C@H](CCCCN)NC2=O [[D8N]Pnc1a] (H-DCRYMFGNCEKDEDCCKHLGCKRKMKYCAWDFTFT-OH; disulfide 2-16, 9-21, 15-28)	0.349	14	0.147	6	3	118	0.852	35	> 30	>1000	> 30	>1000	0.024	1	> 30	>1000
